The test system of one data set is breast cancer cell line. Also noted: method as in PMID 26865836. To be noted: 24 h, ref [93]; cited from earlier work.
A further data set deals with HT-22 and SH-SY5Y cells. To be noted: concentration where viability was restored to about 75%, ref [103]; read-out: Effective concentration 50 (EC50), neuroprotection; cited from earlier work.
The test system of data set [1] is panel of cancer cell lines. Also noted: method as in PMID 39454890. To be noted: ref [48]; read-out: IC50 against a panel of cancer cell lines; cited from earlier work.
Data set [2] deals with Enterococcus faecalis. To be noted: ref [4],[29]; cited from earlier work.
The test system of a further data set is CCL-1. Nature of the data set: MTT assay for cytotoxicity. In kind it is cell-based, murine. The procedure:
(§1) The MTT assay was performed according to Annex C, ISO 10993-5 [56] as in [116]. The panel of non-tumorigenic cell lines consisted of one murine (CCL-1 fibroblasts, which are recommended as a standard for cytotoxicity evaluation in Annex C of ISO 10993-5 [56]) and four human cell lines—HaCaT (immortalized epidermal keratinocytes), HGF (gingival fibroblasts), HEK-293 (embryonic cells from kidney epithelium), and HEPG2 (hepatoblastoma). Although technically a cancer cell line, HEPG2 is non-tumorigenic and retains many hepatocyte-related features in its proteome and a high degree of morphological and functional differentiation, also being a stage one hepatoblastoma.
(§2) CCL-1 was purchased from ATCC and HaCaT and HGF were bought from CLS Cell Lines Service (GmbH, Eppelheim, Germany). HEK-293 and HEPG2 were obtained from DSMZ. The cell culture medium for HaCaT and HEPG2 was Dulbecco’s Modified Eagle Medium (DMEM) with 4.5 g/L glucose (DMEM-HA). For HGF it was DMEM/F-12 (DMEM-12-A, a 1:1 mixture of DMEM and Ham’s F-12 medium). The cell medium for CCL-1 and HEK-293 was Eagle’s Minimum Essential Medium (MEM) (MEM-A). Ten percent heat-inactivated fetal bovine serum (FBS) was added to all media but to the one for the CCL-1 cells, to which 10% heat-inactivated horse serum was added. All media were supplemented with 2 mM L-glutamine and Penicillin/Streptomycin (Pen/Strep, 100×). The cell culture media, sera, and additives were from Capricorn Scientific (Düsseldorf, Germany).
(§3) GraphPad Prism software version 9 (GraphPad Software Inc., San Diego, CA, USA) was used to calculate the IC50 values from the MTT assays as in [116], as well as the MTC values, and the ELISA standard curves. The MTC values are, according to ISO 10993-5, the maximum concentration at which at least 70% of the cells are viable (nonlin fit, range).

In the next data set the test system is HaCaT. The data set can be described thus: MTT assay for cytotoxicity. In kind it is cell-based, human. The procedure:
as §1, §2, §3
For orientation: Tetrazolium assays rely on reduction of a dye to a coloured formazan, in cell work by metabolically active cells.

The subject of another data set is HEPG2. Nature of the data set: MTT assay for cytotoxicity. It counts as cell-based, human. Here is the method: as §1, §2, §3
The test system of data set [3] is Methicillin-Resistant S. aureus (MRSA). The data set can be described thus: MIC and MBC evaluation (broth microdilution, agar plate assay). It counts as cell-based, Staphylococcus aureus. Here is the method:
(§4) The MIC and MBC assessment on the pathogenic bacteria and the candidate probiotic lactic acid bacteria was carried out by the broth microdilution assay (BMD) and the agar plate assay, respectively, as described in [4]. The metabolic (dehydrogenase) activity of the lactic acid bacteria was assessed as described in [4].
(§5) P. aeruginosa PAO1 ATCC 15692 was purchased from the American Type Cell Culture Collection (ATCC, Manassas, VA, USA). S. mutans DSM 20523 was bought from the German Collection of Microorganisms and Cell Cultures (DSMZ GmbH, Braunschweig, Germany). All other bacteria and strains were purchased as described in [4].
On the technique in general: In broth dilution the organism is exposed to a series of concentrations in liquid medium.

The test system is the same in data set [4]. To be noted: ref [4],[29]; cited from earlier work.
The subject of data set [5] is Streptococcus pyogenes. Conditions: ref [4],[29]; cited from earlier work.
Data set [6] deals with Pseudomonas aeruginosa PAO1. Nature of the data set: MIC and MBC evaluation (broth microdilution, agar plate assay). It counts as cell-based. The procedure:
as §4, §5

In data set [7] the test system is Staphylococcus aureus. The description is as above. In kind it is cell-based. The procedure: as §4, §5
Data set [8] has as its system Enterococcus faecalis. The data set is described as above. It counts as cell-based. To be noted: for MBC/MIC ratio, E. faecalis: bactericidal if ≤ 4, bacteriostatic if > 4. The procedure: as §4, §5
Data set [9] relates to Streptococcus pyogenes. The data set is described as above. It counts as cell-based. To be noted: for MBC/MIC ratio, S. pyogenes: bactericidal if ≤ 4, bacteriostatic if > 4. Here is the method:
as §4, §5

Data set [10] deals with Human gingival fibroblasts (HGF). The data set can be described thus: MTT assay for cytotoxicity. It counts as cell-based. The procedure: as §1, §2, §3
The subject of data set [11] is Human embryonic kidney-293 (HEK-293). Nature of the data set: MTT assay for cytotoxicity. It counts as cell-based. Here is the method:
as §1, §2, §3

For data set [12], the system named is Staphylococcus aureus. To be noted: ref [4],[29]; cited from earlier work.
A further data set relates to Streptococcus mutans. Nature of the data set: MIC and MBC evaluation (broth microdilution, agar plate assay). It counts as cell-based. Here is the method:
as §4, §5

Where [13] appears, read: bactericidal if ≤ 4, bacteriostatic if > 4.

As for `N.N.[Cl][Pt][Cl]` [cisplatin], in the data set with breast cancer cell line, the “IC50 for a breast cancer cell line” value is 20 µg/mL.

`c1cc2c(cc1[C@H]1OC[C@H]3[C@@H]1CO[C@@H]3c1ccc3c(c1)OCO3)OCO2` [sesamine]: the EC50 in the data set on HT-22 and SH-SY5Y cells is 2.85 µM.

Broadly, the IC50 is the concentration at which inhibition is half-maximal. Turning to Cerastioside A, the IC50 in [1] is 107 to 198 µM.

As for Olympiforin A, in the data set on Enterococcus faecalis [2], the “MIC on bacteria, E. faecalis” value is reported as 12.5 µg/mL. For the same compound, the “Maximum tolerated concentration (MTC), CCL-1” value with CCL-1 was determined as 3.27 µg/mL. Further, the “IC50, CCL-1” value with CCL-1 (MTT assay) is 6.13 µg/mL. Besides, the IC50 in the data set with CCL-1 (converted to µM) stood at 12.3 µM; in the data set on HaCaT (converted to µM), 2.68 µM; in the data set on HEPG2 (converted to µM), 13.8 µM; in [10] (converted to µM) it was 39.1 µM; in data set [11] (converted to µM) it was 1.39 µM. Moreover, the “Maximum tolerated concentration (MTC), HaCaT” value with HaCaT turned out to be 0.47 µg/mL. In addition, in the data set with HaCaT (MTT assay), the “IC50, HaCaT” value stood at 1.33 µg/mL. For the same compound, the “Maximum tolerated concentration (MTC), HEPG2” value in the data set on HEPG2 is on record as 2.51 µg/mL. Also, the “IC50, HEPG2” value in the data set on HEPG2 (MTT assay) came to 6.87 µg/mL. The MBC in data set [3] stood at 171 µM; in the data set on Staphylococcus aureus [7] (read-out: Minimal bactericidal concentration (MBC), Staphylococcus aureus) it was 50 µM; against Enterococcus faecalis [8], 252 µM; in the data set on Streptococcus pyogenes [9], 1008 µM. Further, the “MBC, Methicillin-Resistant S. aureus (MRSA)” value in data set [3] is 85 µg/mL. Also, the “MBC/MIC ratio, MRSA” value in data set [3] (setting [13]) was 7. Moreover, the “MIC on bacteria, MRSA” value in data set [4] was 12.5 µg/mL. In addition, the “MIC on bacteria, S. pyogenes” value in the data set on Streptococcus pyogenes [5] was 12.5 µg/mL. For the same compound, in data set [6], the “MBC, Pseudomonas aeruginosa PAO1” value was 2713 µg/mL. Besides, the “MIC, Pseudomonas aeruginosa PAO1” value in data set [6] was found to be 1356 µg/mL. Further, in the data set with Staphylococcus aureus [7], the “Minimal bactericidal concentration (MBC), Staphylococcus aureus” value is on record as 25 µg/mL. Also, the “MBC/MIC ratio, S. aureus” value in the data set on Staphylococcus aureus [7] (setting [13]) is on record as 32. The “MBC, Enterococcus faecalis” value against Enterococcus faecalis [8] was 125 µg/mL. Besides, the “MBC/MIC ratio, E. faecalis” value in the data set on Enterococcus faecalis [8] was determined as 10. The “MBC, Streptococcus pyogenes” value in the data set with Streptococcus pyogenes [9] is given as 500 µg/mL. Besides, the “MBC/MIC ratio, S. pyogenes” value in the data set with Streptococcus pyogenes [9] is 40. In data set [10], the “Maximum tolerated concentration (MTC), HGF” value is given as 16.78 µg/mL. In addition, the “IC50, HGF” value in [10] (MTT assay) is 19.44 µg/mL. In addition, in data set [11], the “Maximum tolerated concentration (MTC), HEK-293” value was found to be 0.41 µg/mL. Besides, the “IC50, HEK-293” value in data set [11] (MTT assay) was 0.69 µg/mL. Also, in the data set with Staphylococcus aureus [12], the “MIC on bacteria, S. aureus” value was 0.78 µg/mL.

For the compound Penicillin [reference compound], in the data set with Enterococcus faecalis [8], the “MBC, Enterococcus faecalis” value is recorded as 20 µg/mL and the “MBC/MIC ratio, E. faecalis” value stood at 8. In the data set on Streptococcus pyogenes [9], the “MBC, Streptococcus pyogenes” value is listed as 0.25 µg/mL and the “MBC/MIC ratio, S. pyogenes” value was 3. Also, in the data set on Streptococcus mutans, the “MBC for S. mutans” value is on record as 2 µg/mL and the “MIC for S. mutans” value is 0.03 µg/mL. In addition, the “MBC/MIC ratio, Streptococcus mutans” value with Streptococcus mutans (setting [13]) stood at 66.

The values are drawn from paper PMC12566971, “Polyprenylated Acylphloroglucinols from Hypericum rochelii and Hypericum olympicum—Cytotoxic Effects on Non-Tumorigenic Cell Lines and Antibacterial Potential” (Pharmaceuticals, 2025).
